Results: patent US20250099420A1, “SMALL MOLECULE MODULATORS OF GPR139 COMPLEX” (University of Florida Research Foundation, Incorporated, priority 2022, published 2025)
Like-named read-outs stand apart in the source and are kept apart here.

Experiments:
[1] = test system: parental HEK cells; assay: HEK parental Agonist Counterscreen Assay (non-transfected cells); format: cell-based; details: for Averaged Max % Response (±St. Dev.): activity relative to known control
Source text: The high control for the agonist counterscreen was Forskolin not acetylcholine.

[2] = target: T1, GPR139 (Homo sapiens, UniProt Q6DWJ6); assay: GPR139 Agonist titration / agonist counterscreen assay (calcium detection, HEK-GPR139 cells); format: cell-based; parameters: expressed in transfected cells; host or cells: HEK Aequorin cells, Maxcyte transient transfection; details: GPR139 Agonist Activity; for Averaged Max % Response (±St. Dev.): activity relative to known control; for EC50: read-out: EC50
T1 sequence (Q6DWJ6 1-353): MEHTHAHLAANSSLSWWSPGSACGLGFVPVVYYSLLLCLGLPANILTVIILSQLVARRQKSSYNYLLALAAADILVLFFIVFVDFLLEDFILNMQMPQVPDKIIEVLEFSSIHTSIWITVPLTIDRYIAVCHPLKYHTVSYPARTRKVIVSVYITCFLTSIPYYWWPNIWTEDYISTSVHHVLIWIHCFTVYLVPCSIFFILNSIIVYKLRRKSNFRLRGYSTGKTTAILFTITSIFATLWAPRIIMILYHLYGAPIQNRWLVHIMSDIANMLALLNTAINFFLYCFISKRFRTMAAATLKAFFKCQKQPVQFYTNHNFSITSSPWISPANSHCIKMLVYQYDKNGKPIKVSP
Experimental: GPR activity was assessed using a calcium detection assay. […] Negative control samples were treated with DMSO. […] Intracellular calcium was measured using Calcium 5.

[3] = HEK Agonist Activity section of Table 4 (parental HEK counterscreen)
[4] = values printed in E-notation without unit
[5] = HEK Agonist Activity, parental non-transfected HEK cells
[6] = Homo sapiens, HEK293, HEK Agonist Activity section of Table 4 (parental HEK counterscreen)
[7] = Homo sapiens, HEK293, HEK Agonist Activity, parental non-transfected HEK cells

Compound | Lipophilic Efficiency (logD) ([1]; HEK Agonist Activity section) | Lipophilic Efficiency (logP) ([1]; HEK Agonist Activity section) | Averaged Max % Response (±St. Dev.) ([1]; HEK Agonist Activity section) | Averaged Max % Response (±St. Dev.) [2] | Lipophilic Efficiency (logD) ([2]; based on logD) | Lipophilic Efficiency (logP) ([2]; based on logP) | Hill Slope ([2]; fitted dose-response curve) | Efficiency Ligand ([2]; ligand efficiency) | EC50 [2, 4] | Efficiency Ligand [2] | Hill Slope [2] | Lipophilic Efficiency (logD) [2] | Lipophilic Efficiency (logP) [2] | EC50 ([2]; HEK-GPR139 cells) | Lipophilic Efficiency (logD) ([1]; HEK Agonist Activity) | Lipophilic Efficiency (logP) ([1]; HEK Agonist Activity) | Averaged Max % Response (±St. Dev.) ([1]; HEK Agonist Activity) | EC50 [1, 6] | EC50 [1, 7] | other results
Cc1ccccc1NC(=O)CSC1=C(C#N)C(c2ccccc2C(F)(F)F)C2=C(CCCC2=O)N1 (stereo not drawn) [SR-01000484454] | −0.16 | −0.16 | 27.15 ± 8.69% | 96.91 ± 19.53% | 1.98 | 1.98 | 0.52 | 0.28 | 85.3 nM | – | – | – | – | – | – | – | – | – | – | EC50 [1, 3]: > 11900 nM
Cc1ccc(NC(=O)CSC2=C(C#N)C(c3ccc(F)cc3)CC(=O)N2)c(C)c1 (stereo not drawn) [SR-01000484494] | 0.89 | 0.89 | 14.09 ± 3.35% | 114.96 ± 19.78% | – | – | – | – | – | 0.28 | 0.89 | 1.82 | 1.82 | 1900 nM | – | – | – | – | – | EC50 [1, 3]: > 16000 nM
COc1cc(-c2nnc(COc3ccc(Cl)cc3C)o2)cc(OC)c1OC [SR-01000504687] | – | – | – | 92.66 ± 5.93% | 4.45 | 4.45 | 0.62 | 0.40 | 19.4 nM | – | – | – | – | – | 1.65 | 1.65 | −3.10 ± 6.59% | – | – | EC50 [1, 5]: > 12200 nM
Cc1cccc(C(=O)NNC(=O)CCc2ccccc2)c1 [SR-01000513008] | 1.74 | 1.74 | −5.44 ± 7.74% | 109.30 ± 27.76% | – | – | – | – | – | 0.42 | 0.93 | 3.32 | 3.32 | 454 nM | – | – | – | > 17100 nM | – | –
CC(Oc1ccc(Cl)cc1Cl)C(=O)NNC(=O)c1ccc(F)cc1 (stereo not drawn) [SR-01000520452] | 1.26 | 1.13 | 1.29 ± 6.31% | 113.17 ± 28.03% | 3.08 | 2.96 | 0.85 | 0.39 | 235 nM | – | – | – | – | – | – | – | – | > 15700 nM | – | –
CC(Oc1ccc(O)cc1Cl)C(=O)NNC(=O)c1cccc(F)c1 (stereo not drawn) [SR-01000520454] | – | – | – | 113.77 ± 7.21% | 5.60 | 5.48 | – | 0.53 | > 0.703 nM | – | – | – | – | – | 1.31 | 1.19 | 15.83 ± 2.96% | – | > 13800 nM | –
Cn1cnnc1SCc1ccc(F)c2ccccc12 [SR-01000524029] | – | – | – | 98.34 ± 6.18% | 4.61 | 4.61 | 0.92 | 0.57 | 16.2 nM | – | – | – | – | – | 1.61 | 1.61 | 9.45 ± 2.06% | – | – | EC50 [1, 5]: > 16000 nM
CC1=CN=C(CCc2ccc(F)c3ccccc23)C1 [SR-01000525232] | – | – | – | 96.70 ± 23.19% | 4.05 | 4.05 | 0.19 | 0.57 | – | – | – | – | – | – | 1.09 | 1.09 | −17.88 ± 3.50% | – | > 17400 nM | –
COc1ccc(SCC(=O)NNC(=S)Nc2ccccc2)cc1 [SR-01000526835] | 1.85 | 1.85 | 7.64 ± 8.84% | 81.65 ± 6.38% | – | – | – | – | – | 0.37 | 1.15 | 3.01 | 3.01 | 955 nM | – | – | – | > 13900 nM | – | –
O=C(CCc1nc2ccccc2n1-c1ccccc1)NCCc1ccccc1 [SR-01000535824] | – | – | – | 136.02 ± 19.68% | 2.73 | 2.73 | – | 0.39 | – | – | – | – | – | – | −0.133 | −0.133 | 34.71 ± 16.19% | – | > 12100 nM | –
